Experimental data: patent US9963457B2, “Crystal of 5-((2-(6-amino)-9H-purin-9-yl)ethyl)amino)pentan-1-o1” (FOREVER CHEER INTERNATIONAL LIMITED, priority 2016, dated 2018)

Key:
[1] = tested on: mice treated with yeast polysaccharide; test: Visceral pain behavior test in chronic visceral pain model; assay type: in vivo; details: 3 mg/kg IP
Method: Chronic Visceral Pain Model
The visceral pain is induced by injecting yeast polysaccharide into the mice colony, and the yeast polysaccharide is derived from Saccharomyces cerevisiae (Sigma), wherein one kind of dextran is resident on the cell wall of the yeast and is identified as a protein-carbohydrate complex. Specifically, the mice were anesthetized after inhaling 1-3% isoflurane, and then a […] suspension of yeast polysaccharide (formulated as a 30 mg/ml solution in physiological saline) was injected into the colon of the mice by using a 24 mm long plastic feed needle within 2 minutes. The control group was injected with 0.1 ml physiological saline. The yeast polysaccharide or physiological saline was injected daily for 3 days. A visceral pain behavior test was carried out according to the Laird procedure. The number of times the mice licking the abdomen within 10 minutes was recorded, excluding other grooming behaviors, stretching of whole body, pressing the abdomen against the floor, and an 1-2-second arched posture. On day 1, 7 and 14 after the injection into the colon, an open field test was carried out from 9 am to 12 pm, and the entire test was a double-blind test. Prior to the behavioral test, the mice were acclimated for 30 minutes in an observation room. The mice were placed at the middle of a new open zone (43.2×43.2×30.5 cm^3) with micro light (<50 lux) and a fan. The movement distance, vertical count, movement count, stereotypic behavior count, and jumping count of animals were recorded within 30 minutes by means of an activity monitoring system equipped with multiple pairs of packaged light beam sets.
The physiological saline, non-crystalline NB001 (3 mg/kg), the crystal of the present invention (3 mg/kg), and Gabapentin (30 mg/kg) as a positive control were intraperitoneally injected (IP) into the mice treated with yeast polysaccharide respectively. The behaviors of Mice were observed 28 days after the yeast polysaccharide treatment.

[2] = Stability test of the crystal form (stress, long-term and accelerated test); assay type: physicochemical
Method: Stress test, long-term stable test and accelerated stability test of the compound with the crystal form:
The stability of the compound with such a crystal form was investigated under conditions of a high temperature (60° C.), high humidity (92.5% RH), strong light irradiation (5 Klx), 40° C./75% RH (for accelerated test) and 25° C./60% RH (for long term test), in accordance with “Guidelines for Stability Testing of bulk pharmaceutical chemicals and formulation” (Chinese Pharmacopoeia 2015 Edition, four main sections of general requirements 9001).
10 mg of the crystalline sample involved in the Examples of the present invention was accurately weighed and placed on the bottom of a glass sample vial, and then spread out to form a thin layer. The samples for test under high temperature and high humidity conditions and for the long-term test were contained in vials sealed with aluminum-foil paper, and some small holes were made on the aluminum-foil paper to ensure that the sample can be fully in contact with ambient conditions; The samples for test under strong light irradiation and for the accelerated test were contained in vials sealed with screw bottle caps. The samples placed under different conditions were taken and analyzed on day 5, 10, and 30, and the analysis results were compared with the initial test results on day 0.

[3] = Accelerated test (40° C./75% RH), Day 30
[4] = Long-term test (25° C./60% RH), Day 30
[5] = Stress test, high humidity (92.5% RH), Day 5
[6] = Stress test, high humidity (92.5% RH), Day 10
[7] = Stress test, high humidity (92.5% RH), Day 30
[8] = Stress test, high temperature (60° C.), Day 5
[9] = Stress test, high temperature (60° C.), Day 10
[10] = Stress test, high temperature (60° C.), Day 30
[11] = Stress test, strong light irradiation (5 Klx), Day 10

Nc1ncnc2c1ncn2CCNCCCCCO [New NB001, 5-(((2-(6-amino)-9H-purin-9-yl)ethyl)amino)pentan-1-ol]
Number of visceral pain scores ([1]; 28 days after yeast polysaccharide treatment): 11.0 ± 0.7
therapeutic effect on chronic pain as compared with the positive control group ([1]; Table 6, listed as the crystal of the present invention): extremely significant
Characteristics [2, 3]: off-white powder
Content (%) [2, 3]: 99.51%
Total Impurities (%) [2, 3]: 0.49%
Characteristics ([2]; Day 0): off-white powder
Content (%) ([2]; Day 0): 99.39%
Total Impurities (%) ([2]; Day 0): 0.61%
Characteristics [2, 4]: off-white powder
Content (%) [2, 4]: off-
Total Impurities (%) [2, 4]: 0.60%
Characteristics [2, 5]: off-white powder
Content (%) [2, 5]: 99.51%
Total Impurities (%) [2, 5]: 0.49%
Characteristics [2, 6]: off-white powder
Content (%) [2, 6]: 99.41%
Total Impurities (%) [2, 6]: 0.59%
Characteristics [2, 7]: off-white powder
Content (%) [2, 7]: 99.53%
Total Impurities (%) [2, 7]: 0.47%
Characteristics [2, 8]: off-white powder
Content (%) [2, 8]: 99.47%
Total Impurities (%) [2, 8]: 0.53%
Characteristics [2, 9]: off-white powder
Content (%) [2, 9]: 99.52%
Total Impurities (%) [2, 9]: 0.48%
Characteristics [2, 10]: off-white powder
Content (%) [2, 10]: 99.43%
Total Impurities (%) [2, 10]: 0.57%
Characteristics [2, 11]: off-white powder
Content (%) [2, 11]: 99.48%
Total Impurities (%) [2, 11]: 0.52%
stability under various test conditions ([2]; all test conditions of Table 5): good
